{"source": "patent US11666645B2", "about": "“CD200 inhibitors and methods of use thereof” (REGENTS OF THE UNIVERSITY OF MINNESOTA, priority 2015, dated 2023)", "key": {"[1]": {"system": "GL261 tumor bearing mice", "assay": "GL261 glioma model, vaccination with tumor lysate +/- CD200 inhibitor, tumor growth and survival", "description": "FIG. 5B) Mice were imaged weekly for tumor growth. The following groups were studied: saline (1), tumor lysate (2), and tumor lysate+CD200 inhibitor (6059) (3). FIG. 5C) Percent survival post inoculation for saline (1), tumor lysate (2), and tumor lysate+CD200 inhibitor (3) groups.\nIn vivo survival study. […] All vaccinations were administered in the back of the neck in tumor bearing mice."}, "[2]": {"system": "glioma-derived exosomes", "assay": "Vaccination of non-tumor bearing mice with OVA + glioma-derived exosomes +/- inhibitor", "assay_type": "in vivo, mouse", "settings": "OVA+glioma-derived exosomes+antagonist", "experimental": "(§1) FIGS. 12A-12C. CD200 inhibitor reverses the suppressive effects of the tumor environment. Tumor and non-tumor bearing mice were vaccinated with OVA+Poly:ICLC +/− the CD200 inhibitor 6059 and analyzed for FIG. 12A) SIINFEKL/Kb^+CD8^+ T cell expansion (“SIINFEKL” disclosed as SEQ ID NO: 18). FIG. 12B) Lymphocytes were harvested and stimulated with SIINFEKL peptide (SEQ ID NO: 18). Supernatants were analyzed for TNFα and IFNγ secretion. FIG. 12C) The CD200 inhibitor 6059 was added to OVA+exosomes. Error bars indicate +/−SEM (n=4/group; *P<0.05; by t-test).\n(§2) These experiments support the hypothesis that exosomes express the CD200 protein thereby inhibiting the ability to prime a T cell response in the draining lymph nodes of glioma bearing mice. Other CD200 inhibitors were similarly evaluated (FIGS. 3A-3B, 9A-9B and 24A-24B)."}, "[3]": {"system": "GL261 tumor bearing mice", "assay": "GL261 glioma model, inhibitor inoculated into the tumor site in the brain, then tumor lysate + inhibitor", "assay_type": "in vivo, mouse", "settings": "10 μg inhibitor in the brain at tumor coordinates on day 2, then weekly tumor lysate + inhibitor", "experimental": "Tumor-bearing mice were inoculated in the brain with 10 μg of the inhibitor 6059 at the same coordinates at which the tumor was injected two days previously. This was followed by weekly injections of tumor lysate+inhibitor (FIGS. 5A-5B)."}, "[4]": {"system": "tumor bearing mice", "assay": "Prime-boost OVA vaccination of tumor bearing mice, SIINFEKL specific CD8+ T cell expansion by flow cytometry", "assay_type": "in vivo, mouse", "settings": "tumor bearing mice vaccinated with OVA+Poly:ICLC +/- inhibitor, whole blood", "experimental": "FIGS. 3A-3B. FIG. 3A) Vaccination scheme. FIG. 3B) Tumor bearing or non-tumor bearing mice were vaccinated on day 2 and 8 with an agonist (4012) or CD200 inhibitor (6059) only, and on days 3-6 and […] with OVA+Poly:ICLC +/− the agonist (4012) or CD200 inhibitor (6059). B) Mice were bled on day 10, whole blood was stained with an anti-CD8 and SIINFEKL specific detramer (SEQ ID NO: 18), lysed and analyzed by flow cytometry.\nas §1, §2"}, "[5]": {"system": "tumor bearing mice", "assay": "Recall response: lymphocytes of vaccinated tumor bearing mice restimulated with OVA/SIINFEKL, cytokine release", "assay_type": "in vivo, mouse", "settings": "lymphocytes from cervical lymph nodes of vaccinated tumor bearing mice restimulated, supernatant after 48 hrs", "source_text": "FIGS. 4A-4B. Tumor bearing or non-tumor bearing mice were vaccinated on day 2 and 8 with an agonist or CD200 inhibitor only, and on days 3-6 and 10 with OVA+Poly:ICLC +/− the CD200 inhibitor 6059. On day 10, were harvested and stimulated with OVA protein to measure a recall response via cytokine release. FIG. 4A) TNF alpha (PG/ML) levels from tumor bearing mice. FIG. 4B) IFN gamma (PG/ML) levels in tumor bearing mice.\nas §1, §2"}, "[6]": {"system": "Human immature dendritic cells", "assay": "Human immature dendritic cells pulsed with P1 peptide or alanine-substituted versions, cytokine production", "assay_type": "cell-based", "settings": "human CD11b-derived immature dendritic cells (GM-CSF, IL4), supernatants", "experimental": "FIGS. 13A-13B. Human CD11b cells were isolated. Purified CD11b cells were differentiated to immature dendritic cells using GM-CSF and IL4. Cells were pulsed with P1, P2, P3 and P4 CD200 inhibitors (see Table 2). Supernatants were analyzed for FIG. 13A) cytokine or FIG. 13B) chemokine production.\nFIG. 16. Human CD11b cells were isolated and the purified CD11b cells were differentiated to immature dendritic cells using GM-CSF and IL4. Cells were pulsed with human P1 peptide, or a mutated version thereof comprising an alanine substitution (denoted by P1 and the amino acid substitution and position; e.g., P1A1, P1A2, P1A3, P1A4, P1A5, P1A6, etc.) (see, Table 2). Supernatants were analyzed for cytokine production."}, "[7]": {"system": "splenocytes + OT-1 T cells", "assay": "Splenocytes pulsed with OVA + inhibitor, OT-1 T cells added, cytokine production by flow cytometric bead array", "assay_type": "cell-based, mouse", "settings": "splenocytes pulsed 24 hours with OVA+inhibitor, 48 hours with OT-1 T cells", "experimental": "FIGS. 11A-11B. Splenocytes were pulsed with OVA+an inhibitor peptide and incubated for 24 h. Following incubation, cells were washed, purified OT1 were added to wells and incubated for an additional 48 hours then analyzed for FIG. 11A) TNFa and IL-6 production; and FIG. 11B) IL-2 and IL-17 production. Error bars indicate +/−SEM (n=4/group; *P<0.05; ** P<0.01).\nWe hypothesize that the two different human CD200 inhibitor peptides (peptide 1=hP1 & peptide 2=hP2, table 2) are hitting different activation receptors on dendritic cells, although only one has been identified. […] We want to generate the immune response most beneficial for our patients. These conclusions were supported by experiments where splenocytes were pulsed with OVA+selected CD200 inhibitors (6061, 6069, 4004, 4006, 4013) for 24 hours. The splenocytes were then washed and cultured for 48 hours with the addition of OT-1 T cells. The cultures were then assessed for cytokine production using a flow cytometric bead array."}, "[8]": {"system": "PPIA", "assay": "PPIA production in monocytes with CD200 inhibitor", "assay_type": "cell-based", "settings": "peptide binds the CD200 activating receptor", "source_text": "FIGS. 18A-18E. Experimental Model. CD200 is solubilized from the tumor or endothelial interacting on its receptor (CD200R). This CD200/CD200R interaction induces the upregulation of PPIA through the MYC pathway decreasing TNF alpha and IL2 production needed for an immune response (FIG. 18A).\nThese antagonist have been reported to reverse the differentiation to as myeloid-derived suppressor cells following interaction with soluble CD200 (FIG. 18C) (Moertel et al., J Immunother Can; 2(1):46) and in vivo (FIG. 23). The mechanism of […] protein inhibition has been determined through the upregulation of an immunosuppressive protein PPIA (FIGS. 18A-18E) which is inhabited with the use of the CD200 inhibitor P1A12."}}, "note": "“Also recorded” adds a separate entry of the source.", "data": [{"sequence": "NTIGDGGCY [Inhibitor 6059]", "values": [{"measurement": "Survival benefit", "setting": "[1]; GL261 mice vaccinated weekly with tumor lysates + inhibitor vs saline or tumor lysates", "result": "increased survival benefit"}, {"measurement": "Tumor growth", "setting": "[1]; GL261 mice, tumor lysate (65 μg) + inhibitor (50 μg), imaged weekly, vs saline or tumor lysate", "result": "slowed tumor growth"}, {"measurement": "Enhancement of survival", "setting": "[1]; GL261 mice, tumor lysate (65 μg) + inhibitor (50 μg), vs saline or tumor lysate", "result": 30, "unit": "%"}, {"measurement": "Suppression induced by exosomes", "setting": "[2]", "result": "partially reversed the suppression induced by exosomes"}, {"measurement": "Tumor growth after inhibitor into the tumor site in the CNS", "setting": "[3]", "result": "Tumor growth was delayed"}, {"measurement": "SIINFEKL specific CD8+ T cell expansion: effect on tumor induced suppression", "setting": "[4]", "result": "reversed tumor induced suppression; also recorded: reversed the suppressive effects of the tumor microenvironment; also recorded: reversed the suppressive effects in tumor-bearing mice"}, {"measurement": "Recall response via cytokine release (TNF alpha, IFN gamma): effect on tumor induced suppression", "setting": "[5]", "result": "modulate/reverse glioma-induced suppression; also recorded: reversed the suppressive effects of the tumor microenvironment"}]}, {"sequence": "SQKVSATACLTLY [hP1A6]", "values": [{"measurement": "Cytokine production (response) vs human P1 peptide", "setting": "[6]", "result": "enhanced TNF-α and IL-β production"}, {"measurement": "Cytokine production (response) vs human P1 peptide", "setting": "[6]; listed as P1A6", "result": "significantly enhanced response"}]}, {"sequence": "SQKVSGTACLTLY [Inhibitor 4006, P3 in b288]", "values": [{"measurement": "Cytokine profile (TNFa, IL-6, IL-2, IL-17)", "setting": "[7]", "result": "different cytokine profiles"}]}, {"sequence": "TASLRCSLKTSQE [Inhibitor 4004]", "values": [{"measurement": "Cytokine profile (TNFa, IL-6, IL-2, IL-17)", "setting": "[7]", "result": "different cytokine profiles"}]}, {"sequence": "VTWQKKKAVSPAN [Inhibitor P1A12, P1 in b288]", "values": [{"measurement": "Production of PPIA", "setting": "[8]", "result": "inhibits the production of PPIA"}]}]}
